Assay results: ChEMBL document CHEMBL1137625, “Phenylpiperidine-benzoxazinones as urotensin-II receptor antagonists: synthesis, SAR, and in vivo assessment” (Bioorg Med Chem Lett, 2007)
Active and inactive are the calls of the source. The rule behind the calls is not given here.

Key:
Urotensin-2 receptor [1] = biological target: T1, Urotensin-2 receptor (Rattus norvegicus, UniProt P49684); assay: Antagonist activity at rat UT receptor transfected in CHOK1 cells assessed as calcium mobilization by FLIPR method; type: functional, cell-based, CHO-K1
T1 sequence (P49684 whole entry): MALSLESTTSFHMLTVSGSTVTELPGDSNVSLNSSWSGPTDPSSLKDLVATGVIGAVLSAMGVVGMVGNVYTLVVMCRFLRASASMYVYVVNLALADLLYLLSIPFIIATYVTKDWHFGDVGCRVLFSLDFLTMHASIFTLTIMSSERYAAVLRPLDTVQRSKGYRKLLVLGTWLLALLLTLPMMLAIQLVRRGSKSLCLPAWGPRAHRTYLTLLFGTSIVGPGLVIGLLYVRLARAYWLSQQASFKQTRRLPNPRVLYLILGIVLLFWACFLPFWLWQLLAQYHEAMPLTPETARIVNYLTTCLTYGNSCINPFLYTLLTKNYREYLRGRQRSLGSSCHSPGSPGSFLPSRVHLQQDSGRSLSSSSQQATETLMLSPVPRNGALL

Urotensin-2 receptor [2] = biological target: T2, Urotensin-2 receptor (Homo sapiens, UniProt Q9UKP6); assay: Displacement of [125I]U2 from human UT receptor in RMS13 cells after 2.5 hrs; type: cell-based
T2 sequence (Q9UKP6 whole entry): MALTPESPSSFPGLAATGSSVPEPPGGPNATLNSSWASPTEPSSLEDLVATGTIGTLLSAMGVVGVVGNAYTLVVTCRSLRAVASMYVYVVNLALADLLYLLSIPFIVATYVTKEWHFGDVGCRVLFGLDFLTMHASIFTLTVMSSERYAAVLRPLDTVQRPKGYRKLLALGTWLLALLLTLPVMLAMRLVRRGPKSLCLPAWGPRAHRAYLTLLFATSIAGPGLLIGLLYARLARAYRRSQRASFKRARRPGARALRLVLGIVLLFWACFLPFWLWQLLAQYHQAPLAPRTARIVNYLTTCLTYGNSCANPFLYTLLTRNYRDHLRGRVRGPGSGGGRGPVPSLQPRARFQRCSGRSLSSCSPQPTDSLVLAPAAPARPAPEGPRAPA

[3] = Cmax in rat at 2 mg/kg, iv; type: ADME, organism-based; parameters: dose 2 mg/kg, route intravenous; details: in vivo
Rattus norvegicus [4] = assay: Effect on ear pinna temperature in sc dosed rat; type: functional, organism-based
Rattus norvegicus [5] = assay: Decrease in U2-induced ear pinna temperature in iv dosed rat; type: functional, organism-based
[6] = Half life in rat at 2 mg/kg, iv; type: ADME, organism-based; parameters: dose 2 mg/kg, route intravenous; details: in vivo

| Compound | IC50 (Urotensin-2 receptor [1]) [nM] | Ki (Urotensin-2 receptor [2]) [nM] | also measured |
| --- | --- | --- | --- |
| O=C1COc2ccccc2N1CCN1CCC(C(=O)NCc2ccccc2)(c2ccccc2)CC1 | 43000 | – | – |
| CN(CCc1ccccc1)C(=O)C1(c2ccccc2)CCN(CCN2C(=O)COc3ccccc32)CC1 | 12000 | – | – |
| CC(C)(C)OC(=O)N1CCC(CCNC(=O)c2cc(Cl)ccc2C2CCN(CCN3C(=O)COc4ccccc43)CC2)CC1 | – | 77 | – |
| CN(CCCc1ccccc1)C(=O)C1(c2ccccc2)CCN(CCN2C(=O)COc3ccccc32)CC1 | 9100 | – | – |
| CC(C)(C)OC(=O)N1CCN(CCNC(=O)c2cc(Cl)ccc2C2CCN(CCN3C(=O)COc4ccccc43)CC2)CC1 | 10 | 65 | Cmax [3]: 553 ng/mL; Activity (Rattus norvegicus [4]): inactive; Activity (Rattus norvegicus [5]): Active; half-life [6]: 2.12 h |
| CC(C)(C)CC(=O)N1CCC(CNC(=O)c2cc(Cl)ccc2C2CCN(CCN3C(=O)COc4ccccc43)CC2)CC1 | – | 27 | – |
| O=C(NCC1CCN(C(=O)c2ccccc2)CC1)c1cc(Cl)ccc1C1CCN(CCN2C(=O)COc3ccccc32)CC1 | – | 160 | – |
